The structures appear in SMILES notation. Where “and” joins values, the source holds several entries; their conditions need not be identical. Equal values may be shown once.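 Values below derive from 48-hour exposures of cells grown in 96-well plates, with endpoints linearly interpolated between the two concentrations bracketing the appropriate inhibition level. Here, GI50 denotes the concentration required for 50% inhibition of growth.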 Calls of active or inactive are those of the source. No stated cut-off is given here; in the data, active = GI50 up to about 1.1 µM and inactive = higher.

The results in this text go back to ChEMBL document CHEMBL1201862, “PubChem BioAssay data set” (2004).

Common to all, as to assay: NCI tumour cell line growth inhibition, 48 h
The subject of experiment [1] is BT-549.
Experiment [2] relates to Malme-3M.
The subject of experiment [3] is MDA-MB-435.
Experiment [4] relates to MDA-N.
In experiment [5] the test system is DU-145.
Experiment [6] concerns NCI-H23.
Experiment [7] has as its system SF-295.
The test system of experiment [8] is IGROV-1.
The subject of experiment [9] is SF-539.
Experiment [10] deals with NCI/ADR-RES.
Experiment [11] concerns K562.
Experiment [12] deals with NCI-H226.
Experiment [13] relates to SNB-75.
For experiment [14], the system named is OVCAR-3.
Experiment [15] relates to HL-60.
Experiment [16] concerns UACC-62.
The subject of experiment [17] is MCF7.
Experiment [18] concerns LOX IMVI.
For experiment [19], the system named is A498.
Experiment [20] deals with SR.

For the compound `COc1cc(C2c3cc4c(cc3OC(NN)C2C)OCO4)cc(OC)c1O` (stereo not given), the GI50 in [1] was 10.3 µM (inactive); in experiment [2] it was 5.71 µM (inactive); in experiment [3], 2.32 µM (inactive); in experiment [4] it was 1.84 µM (inactive); in [5], 15.3 µM (inactive); in experiment [6], 27 µM (inactive). For the same compound, the GI50 in experiment [7] is 3.85 µM (inactive); in experiment [8], 5.94 µM (inactive); in experiment [9] it was 11.9 µM (inactive); in experiment [10], 4.52 µM (inactive); in experiment [11] it was 3.08 µM (inactive); in [12], 25.4 µM (inactive). Also, the GI50 is 4.28 µM (inactive) in experiment [13]; 3.66 µM (inactive) in [14]; 2.24 µM (inactive) in experiment [15]; 4.92 µM (inactive) in experiment [16]; 8.09 µM (inactive) in experiment [17].
For `COc1ccc(/C=C/C(=O)CCN2CCN(CCC(=O)/C=C/c3ccc(OC)cc3)CC2)cc1`, the GI50 in experiment [1] is 18.6 µM (inactive); in experiment [2] it was 18.7 µM (inactive); in experiment [3], 9.35 µM (inactive); in experiment [4], 2.54 µM (inactive); in [5], 26.2 µM (inactive); in experiment [6], 15.6 µM (inactive). Besides, the GI50 in experiment [7] was 8.26 µM (inactive); in experiment [8], 11.5 µM (inactive); in experiment [9], 6.17 µM (inactive); in experiment [10], 36.4 µM (inactive); in experiment [11], 5.22 µM (inactive); in experiment [12] it was 22.3 µM (inactive). In addition, the GI50 was 3.49 µM (inactive) in experiment [18]; 19.1 µM (inactive) in experiment [13]; 11.4 µM (inactive) in [14]; 4.61 µM (inactive) in experiment [15]; 13.4 µM (inactive) in experiment [16]; < 0.01 µM (active) in experiment [19]. In addition, the GI50 in experiment [17] was 3.56 µM (inactive).
Consider `CN(C)CCCNC(CC#N)CCC#N` (stereo not given), for which the GI50 in experiment [1], in experiment [2], in experiment [3], in experiment [4], in experiment [5] and in experiment [6] was > 10 µM (inactive) each time. Moreover, the GI50 in [7], in [8], in experiment [9], in [10], in [11] and in [12] was > 10 µM (inactive) each time. The GI50 in experiment [18], in experiment [13], in [14], in experiment [15], in [16] and in [19] was > 10 µM (inactive) throughout. The GI50 in experiment [17] was > 10 µM (inactive).
Take `COc1ccc(/C=C2\CN(C)CC3C2=NN(c2ccccc2)C3c2ccc(OC)cc2)cc1` (stereo not given): the GI50 in experiment [1] was > 100 µM (inactive); in experiment [2], 41.7 µM (inactive); in experiment [3], > 100 µM (inactive); in [4], > 100 µM (inactive); in experiment [5] it was > 100 µM (inactive); in experiment [6], > 100 µM (inactive). Further, the GI50 in experiment [7] is 62.2 µM (inactive); in experiment [8], > 100 µM (inactive); in experiment [10], > 100 µM (inactive); in experiment [11] it was > 100 µM (inactive); in experiment [12], > 100 µM (inactive); in [18], > 100 µM (inactive). The GI50 in experiment [14] is > 100 µM (inactive); in experiment [16], 75 µM (inactive); in [19], 33.8 µM (inactive); in experiment [17] it was > 100 µM (inactive).
Turning to `Cc1ccc(/N=N/c2ccc(N)cc2C)c(S(N)(=O)=O)c1`, the GI50 in experiment [1] was > 100 µM (inactive); in experiment [2], > 100 µM (inactive); in [20], 0.478 µM (active); in [4] it was 71.9 µM (inactive); in [5] it was > 100 µM (inactive); in experiment [6], > 100 µM (inactive). Besides, the GI50 in experiment [7] is 56.1 µM (inactive); in experiment [8] it was 77.3 µM (inactive); in experiment [9] it was > 100 µM (inactive); in [10] it was 76.6 µM (inactive); in experiment [11] it was 75.9 µM (inactive); in experiment [12] it was > 100 µM (inactive). Besides, the GI50 is 78.5 µM (inactive) in experiment [18]; 61.9 µM (inactive) in [13]; 50.4 µM (inactive) in experiment [14]; 29.6 µM (inactive) in experiment [15]; 88.9 µM (inactive) in [16]; > 100 µM (inactive) in [19]. In experiment [17], the GI50 was 61.9 µM (inactive).
`O=C(O)Cc1cc(O)c(CC(=O)O)cc1O`: the GI50 in [1], in experiment [2], in experiment [20], in [3], in experiment [4] and in experiment [5] was > 100 µM (inactive) in each case. Moreover, the GI50 in experiment [6], in experiment [7], in [8], in [10], in experiment [11] and in [12] was > 100 µM (inactive) in each case. Also, the GI50 in experiment [18], in [14], in experiment [15], in [16] and in experiment [19] was > 100 µM (inactive) in each case.
Take `O=C(O)CC(NC(=O)/C(=C/c1ccccc1)NC(=O)c1ccccc1)C(=O)O` (stereo not given): the GI50 in experiment [1], in experiment [2], in experiment [3], in experiment [4], in experiment [5] and in experiment [6] was > 100 µM (inactive) throughout. The GI50 in experiment [7], in [8], in experiment [9], in [10], in experiment [11] and in experiment [12] was > 100 µM (inactive) in each case. Besides, the GI50 in experiment [18], in experiment [13], in experiment [14], in [15], in [16] and in experiment [19] was > 100 µM (inactive) in each case. In addition, the GI50 in experiment [17] was > 100 µM (inactive).
For the compound `N#Cc1c(-c2ccccc2)[nH]c(=O)n(C2OC(CO)C(O)C(O)C2O)c1=O` (stereo not given), the GI50 in [1], in experiment [3], in experiment [5], in experiment [6], in [7] and in experiment [9] was > 100 µM (inactive) in each case. The GI50 in experiment [10] is > 100 µM (inactive); in experiment [11] it was > 100 µM (inactive); in experiment [13], > 100 µM (inactive) and 75.7 µM (inactive); in experiment [14], > 100 µM (inactive); in experiment [16], > 100 µM (inactive); in experiment [19], > 100 µM (inactive). Also, the GI50 in [17] is > 100 µM (inactive).
Take `Cc1cccc2c(N)c3cccc(C(=O)NCC[N+](C)(C)Cc4ccc(S(C)(=O)=O)cc4)c3nc12`: the GI50 was > 100 µM (inactive) in experiment [1]; 38.5 µM (inactive) in [2]; > 100 µM (inactive) in experiment [3]; > 100 µM (inactive) in experiment [4]; 50 µM (inactive) in experiment [5]; 21.8 µM (inactive) in experiment [6]. In addition, the GI50 in experiment [7] is 89.1 µM (inactive); in experiment [8] it was 27.9 µM (inactive); in experiment [9] it was 32.4 µM (inactive); in experiment [10], > 100 µM (inactive); in [11], 10.1 µM (inactive); in experiment [12], 98.2 µM (inactive). For the same compound, the GI50 was 28.8 µM (inactive) in experiment [18]; 10.8 µM (inactive) in experiment [13]; 67 µM (inactive) in experiment [14]; 2.8 µM (inactive) in [15]; > 95.9 µM (inactive) in experiment [16]; 10.8 µM (inactive) in experiment [19]. The GI50 in experiment [17] is 11.5 µM (inactive).
Take `CCCCCCCCCCCCCCCCOCC(COP(=O)([O-])OCC[n+]1ccc(N(C)C)cc1)OCC` (stereo not given): the GI50 was 7.74 µM (inactive) in [1]; 18.5 µM (inactive) in experiment [2]; 4.95 µM (inactive) in experiment [20]; 17.7 µM (inactive) in experiment [3]; 17 µM (inactive) in [4]; 16.5 µM (inactive) in experiment [5]. Further, the GI50 in experiment [6] is 18.6 µM (inactive); in experiment [7], 16.5 µM (inactive); in experiment [8] it was 16.9 µM (inactive); in experiment [9], 13.5 µM (inactive); in experiment [11] it was 19.3 µM (inactive); in [12], 17.2 µM (inactive). Also, the GI50 in experiment [18] was 12.6 µM (inactive); in experiment [13], 2.97 µM (inactive); in experiment [14] it was 11.4 µM (inactive); in experiment [15], 1.52 µM (inactive); in experiment [16], 12.7 µM (inactive); in [17], 19.2 µM (inactive).
Regarding `CC/C=N\N1C(N)=C(C#N)C(C#N)(C#N)C1CC` (stereo not given), the GI50 in experiment [1] was > 100 µM (inactive); in [2] it was > 100 µM (inactive); in experiment [3] it was 50.6 µM (inactive); in experiment [4] it was 53.5 µM (inactive); in experiment [5] it was > 100 µM (inactive); in [6] it was > 100 µM (inactive). In addition, the GI50 in experiment [7] is > 100 µM (inactive); in experiment [8], 63.1 µM (inactive); in experiment [9] it was 26.2 µM (inactive); in experiment [10], 92 µM (inactive); in experiment [11] it was 52.7 µM (inactive); in [12], > 100 µM (inactive). Further, the GI50 in [18] is 49 µM (inactive); in experiment [13], 81.8 µM (inactive); in [14] it was > 100 µM (inactive); in experiment [15], 35.8 µM (inactive); in experiment [16], 59.4 µM (inactive); in experiment [19], > 100 µM (inactive). The GI50 in [17] was 36.5 µM (inactive).
